Values quoted from earlier work in patent US11000475B2, “Ophthalmic solution of difluprednate” (Sun Pharma Advanced Research Company Limited, priority 2015, dated 2021).

solubility in aqueous vehicle: practically insoluble
SMILES: CCCC(=O)O[C@]1(C(=O)COC(C)=O)CCC2[C@@H]3CC(F)C4=CC(=O)C=C[C@]4(C)C3(F)[C@@H](O)C[C@@]21C (stereo partly shown) [Difluprednate]
